Laboratory results published in patent US7119182B1 (The Regents of the University of California, priority 1991, dated 2006).
Square brackets hold non-standard residues; d marks the D form. Ends that are not written are not given here. Peptide text beside a SMILES is read from it. * marks the point of attachment. 2Nal = N[C@@H](Cc1ccc2ccccc2c1)C(=O)O; 2Thi = N[C@@H](Cc1cccs1)C(=O)O; Cha = N[C@@H](CC1CCCCC1)C(=O)O; Phg = N[C@H](C(=O)O)c1ccccc1; Aib = CC(C)(N)C(=O)O; X1 = O=C(c1ccccc1S)*; Mpa = O=C(O)CCS

Each molecule was assayed against T1, thrombin receptor (Homo sapiens, UniProt P25116) (assay: Platelet activation/aggregation assays in the presence of thrombin, antagonist peptides). Details: read-out: IC50 (50% inhibition of activation or aggregation).
T1 construct: In this assay, washed human platelets are prepared by the method of Baenzinger; endogenous in cells; host or cells: washed human platelets
T1 sequence (P25116 22-425): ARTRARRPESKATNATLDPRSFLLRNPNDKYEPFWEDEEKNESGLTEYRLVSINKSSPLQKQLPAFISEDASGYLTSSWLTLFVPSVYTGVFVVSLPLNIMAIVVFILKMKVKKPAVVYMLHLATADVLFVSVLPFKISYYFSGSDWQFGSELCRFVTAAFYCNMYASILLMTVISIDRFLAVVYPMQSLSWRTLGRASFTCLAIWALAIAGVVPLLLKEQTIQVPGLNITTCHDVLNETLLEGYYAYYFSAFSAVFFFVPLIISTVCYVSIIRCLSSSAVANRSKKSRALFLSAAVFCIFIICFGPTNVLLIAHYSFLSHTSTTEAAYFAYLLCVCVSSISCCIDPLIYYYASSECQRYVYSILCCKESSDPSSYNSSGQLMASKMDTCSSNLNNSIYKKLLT
Type: cell-based
Protocol: Platelet Aggregation: In this assay, washed human platelets are prepared by the method of Baenzinger, M. G., Meth Enzymol (1974) 31:149–155, or as described by Charo, I. F., et al., J Clin Invest (1977) 63:866–873.
Washed platelets are suspended in modified Tyrode's buffer, pH 7.4 with 2 mM magnesium and 1 mM calcium at a concentration of 10^8 platelets/ml.
About 20 μl Chromolume® reagent (Chronolog Corporation, Havertown, Pa.) is added. In addition to measuring aggregation, ATP secretion is assessed. […] Platelet ATP secretion is measured in a lumiaggregometer as luminescence signal. […] Preincubation is not necessary for testing agonists or antagonists which interact directly with the receptor.
Platelet Aggregation Assay Using Microtiter Plates: Thrombin- or agonist-mediated platelet aggregation as measured with washed platelets in 96-well microtiter plates was performed as described (Fratantoni, J. C. et al., Am J Clin Pathol (1990) 94:613–617).

IC50	Molecule
80 µM	CC(C)C[C@H](NC(=O)[C@H](Cc1ccccc1)NC(=O)CCS)C(=O)N[C@@H](CC(C)C)C(=O)N[C@@H](CCCNC(=N)N)C(=O)N[C@@H](CC(N)=O)C(=O)N1CCC[C@H]1C(=O)N[C@@H](CC(N)=O)C(=O)N[C@@H](CC(=O)O)C(=O)N[C@@H](CCCCN)C(=O)O ([Mpa]FLLRNPNDK-OH)
80 µM	N=C(N)NCCC[C@H](NC(=O)[C@H](CC1CCCCC1)NC(=O)[C@H](CC1CCCCC1)NC(=O)[C@H](Cc1ccccc1)NC(=O)CCS)C(=O)N[C@@H](CC(N)=O)C(=O)N1CCC[C@H]1C(=O)N[C@@H](CC(N)=O)C(=O)N[C@@H](CC(=O)O)C(=O)N[C@@H](CCCCN)C(=O)N[C@@H](Cc1ccc(O)cc1)C(=O)N[C@@H](CCC(=O)O)C(N)=O ([Mpa]F[Cha][Cha]RNPNDKYE-NH2)
50 µM	N=C(N)NCCC[C@H](NC(=O)[C@H](CC1CCCCC1)NC(=O)[C@H](CC1CCCCC1)NC(=O)[C@H](Cc1ccccc1)NC(=O)c1ccccc1S)C(=O)N[C@@H](CCCCN)C(=O)N1CCC[C@H]1C(=O)N[C@@H](CC(N)=O)C(=O)N[C@@H](CC(=O)O)C(=O)N[C@@H](CCCCN)C(N)=O [(2-Mba)-F(Cha)(Cha)RKPNDK-NH2] (X1-F[Cha][Cha]RKPNDK-NH2)
10 µM	CSCCC(=O)N[C@@H](Cc1ccccc1)C(=O)N[C@@H](CC1CCCCC1)C(=O)N[C@@H](CC1CCCCC1)C(=O)N[C@@H](CCCNC(=N)N)C(=O)N[C@@H](CCCCN)C(=O)N1CCC[C@H]1C(=O)N[C@@H](CC(N)=O)C(=O)N[C@@H](CC(=O)O)C(=O)N[C@@H](CCCCN)C(N)=O [(SMeMpr)-F(Cha)(Cha)RKPNDK-NH2] ([Mpa](Me)F[Cha][Cha]RKPNDK-NH2)
40 µM	C[C@H](NC(=O)[C@H](CCCNC(=N)N)NC(=O)[C@H](CC1CCCCC1)NC(=O)[C@H](CC1CCCCC1)NC(=O)[C@H](Cc1ccccc1)NC(=O)CCS)C(=O)N1CCC[C@H]1C(=O)N[C@@H](CC(N)=O)C(=O)N[C@@H](CC(=O)O)C(=O)N[C@@H](CCCCN)C(N)=O [Mpr-F(Cha) (Cha)RAPNDK-NH2] ([Mpa]F[Cha][Cha]RAPNDK-NH2)
> 100 µM	N=C(N)NCCC[C@H](NC(=O)[C@H](CC1CCCCC1)NC(=O)[C@H](CC1CCCCC1)NC(=O)[C@H](Cc1ccccc1)NC(=O)CCS)C(=O)N[C@@H](Cc1ccccc1)C(=O)N1CCC[C@H]1C(=O)N[C@@H](CC(N)=O)C(=O)N[C@@H](CC(=O)O)C(=O)N[C@@H](CCCCN)C(N)=O [Mpr-F(Cha) (Cha)RFPNDK-NH2] ([Mpa]F[Cha][Cha]RFPNDK-NH2)
50 µM	C[C@H](NC(=O)[C@H](CC(=O)O)NC(=O)[C@H](CC(N)=O)NC(=O)[C@@H]1CCCN1C(=O)[C@H](CCCCN)NC(=O)[C@H](CCCNC(=N)N)NC(=O)[C@H](CC1CCCCC1)NC(=O)[C@H](CC1CCCCC1)NC(=O)[C@H](Cc1ccccc1)NC(=O)CCS)C(N)=O [Mpr-F(Cha) (Cha)RKPNDA-NH2] ([Mpa]F[Cha][Cha]RKPNDA-NH2)
75 µM	C[C@H](NC(=O)[C@H](CC(N)=O)NC(=O)[C@H](CCCNC(=N)N)NC(=O)[C@H](CC1CCCCC1)NC(=O)[C@H](CC1CCCCC1)NC(=O)[C@H](Cc1ccccc1)NC(=O)CCS)C(=O)N[C@@H](CC(N)=O)C(=O)N[C@@H](CC(=O)O)C(=O)N[C@@H](CCCCN)C(N)=O [Mpr-F(Cha) (Cha)RNANDK-NH2] ([Mpa]F[Cha][Cha]RNANDK-NH2)
75 µM	C[C@H](NC(=O)[C@@H]1CCCN1C(=O)[C@H](CC(N)=O)NC(=O)[C@H](CCCNC(=N)N)NC(=O)[C@H](CC1CCCCC1)NC(=O)[C@H](CC1CCCCC1)NC(=O)[C@H](Cc1ccccc1)NC(=O)CCS)C(=O)N[C@@H](CC(=O)O)C(=O)N[C@@H](CCCCN)C(N)=O [Mpr-F(Cha) (Cha)RNPADK-NH2] ([Mpa]F[Cha][Cha]RNPADK-NH2)
> 100 µM	C[C@H](NC(=O)[C@H](CC(N)=O)NC(=O)[C@@H]1CCCN1C(=O)[C@H](CC(N)=O)NC(=O)[C@H](CCCNC(=N)N)NC(=O)[C@H](CC1CCCCC1)NC(=O)[C@H](CC1CCCCC1)NC(=O)[C@H](Cc1ccccc1)NC(=O)CCS)C(=O)N[C@@H](CCCCN)C(N)=O [Mpr-F(Cha) (Cha)RNPNAK-NH2] ([Mpa]F[Cha][Cha]RNPNAK-NH2)
50 µM	N=C(N)NCCC[C@H](NC(=O)[C@H](CC1CCCCC1)NC(=O)[C@H](CC1CCCCC1)NC(=O)[C@H](Cc1ccccc1)NC(=O)CCS)C(=O)N[C@@H](CC(N)=O)C(=O)N1CCC[C@H]1C(=O)N[C@@H](CC(N)=O)C(=O)N[C@@H](CC(=O)O)C(N)=O [Mpr-F(Cha) (Cha)RNPND-NH2] ([Mpa]F[Cha][Cha]RNPND-NH2)

Each molecule was assayed against T2, washed human platelets (Homo sapiens, UniProt P25116) (assay: not given). Details: read-out: EC50 (concentration required to elicit a 50% maximal aggregation); washed human platelets.
T2 sequence (P25116 42-425): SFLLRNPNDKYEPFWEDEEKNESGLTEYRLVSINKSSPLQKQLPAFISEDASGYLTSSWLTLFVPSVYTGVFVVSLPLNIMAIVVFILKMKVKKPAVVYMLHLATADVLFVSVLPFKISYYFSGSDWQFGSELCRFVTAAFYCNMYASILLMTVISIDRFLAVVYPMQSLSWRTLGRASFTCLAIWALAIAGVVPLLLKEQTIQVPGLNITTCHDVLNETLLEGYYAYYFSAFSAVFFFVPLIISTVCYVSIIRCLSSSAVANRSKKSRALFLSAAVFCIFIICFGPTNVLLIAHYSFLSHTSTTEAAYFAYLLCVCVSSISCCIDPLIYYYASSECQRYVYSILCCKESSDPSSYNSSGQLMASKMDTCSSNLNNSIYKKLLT

Molecule	EC50
CC(C)C[C@H](NC(=O)[C@H](CC(C)C)NC(=O)[C@H](Cc1cccs1)NC(=O)[C@@H](N)CO)C(=O)N[C@@H](CCCNC(=N)N)C(N)=O [S(Thi)LLR-NH2] (H-S[2Thi]LLR-NH2)	7.6 µM
CC(C)C[C@H](NC(=O)[C@H](CC1CCCCC1)NC(=O)[C@H](Cc1ccccc1)NC(=O)[C@@H](N)CO)C(=O)N[C@@H](CCCNC(=N)N)C(N)=O [SF(Cha)LR-NH2] (H-SF[Cha]LR-NH2)	1.5 µM
CC(C)C[C@H](NC(=O)[C@H](CC(C)C)N(C)C(=O)[C@H](Cc1ccccc1)NC(=O)[C@@H](N)CO)C(=O)N[C@@H](CCCN=C(N)N)C(N)=O [SF(N-MeLeu)LR-NH2]	> 1000 µM
CC(C)C[C@H](NC(=O)[C@H](Cc1ccccc1)NC(=O)[C@@H](N)CO)C(=O)N[C@@H](Cc1ccc2ccccc2c1)C(=O)N[C@@H](CCCNC(=N)N)C(=O)N[C@@H](CC(N)=O)C(N)=O [SFL(Nal)RN-NH2] (H-SFL[2Nal]RN-NH2)	7.5 µM
CC(C)C[C@H](NC(=O)[C@H](CC(C)C)NC(=O)[C@H](Cc1ccccc1)NC(=O)[C@@H](N)CO)C(N)=O [SFLL-NH2] (H-SFLL-NH2)	146 µM
CC(C)C[C@H](NC(=O)[C@H](CC(C)C)NC(=O)[C@H](Cc1ccccc1)NC(=O)[C@@H](N)CO)C(=O)N[C@@H](CCCN=C(N)N)C(N)=O [SFLLR-NH2]	7.5 µM
SFFLRN-NH2 [SFFLRN-NH2]	1.5 µM
SFLAR-NH2 [SFLAR-NH2]	146 µM
SFLLRNPN	7.6 µM

Same assay, conditions: washed human platelets

EC50 (concentration required to elicit a 50% maximal aggregation)	Molecule
Inactive	DFLLR [DFLLR-NH2]
Inactive	FFLLR [FFLLR-NH2]
Inactive	FLLRNPNDKYEPF
Inactive	KFLLR [KFLLR-NH2]
Inactive	S(Phg)LLR-NH2 (S[Phg]LLR-NH2; N-terminus assumed; SMILES CC(C)C[C@H](NC(=O)[C@H](CC(C)C)NC(=O)[C@@H](NC(=O)[C@@H](N)CO)c1ccccc1)C(=O)N[C@@H](CCCNC(=N)N)C(N)=O)
Inactive	SALLRNPNDKYE
Inactive	SF(Aib)LRN-NH2 (SF[Aib]LRN-NH2; N-terminus assumed; SMILES CC(C)C[C@H](NC(=O)C(C)(C)NC(=O)[C@H](Cc1ccccc1)NC(=O)[C@@H](N)CO)C(=O)N[C@@H](CCCNC(=N)N)C(=O)N[C@@H](CC(N)=O)C(N)=O)
Inactive	SF(D-Ala)LR-NH2 (SF[dA]LR-NH2; N-terminus assumed; SMILES CC(C)C[C@H](NC(=O)[C@@H](C)NC(=O)[C@H](Cc1ccccc1)NC(=O)[C@@H](N)CO)C(=O)N[C@@H](CCCNC(=N)N)C(N)=O)
Inactive	SF(b-Ala)LRN-NH2 (SFXLRN; beta-Ala at position 3; C-terminal amide)
Inactive	SFDLR [SFDLR-NH2]
Inactive	SFLARNPNDKYE
Inactive	SFLER [SFLER-NH2]
Inactive	SFLLDN [SFLLDN-NH2]
Inactive	SFLLRNPNDYKE
Inactive	SFLPR [SFLPR-NH2]
Inactive	SLLLR [SLLLR-NH2]
